Legend:
THZ1 = compound: CN(C)C/C=C/C(=O)Nc1ccc(C(=O)Nc2cccc(Nc3ncc(Cl)c(-c4c[nH]c5ccccc45)n3)c2)cc1 [THZ1]; assay: GR value, 72 h; higher = faster growth (1 = untreated, <0 = killing);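 also: breast cancer and non-malignant breast epithelial lines, nine half-log doses, viable cells counted by Hoechst and LIVE/DEAD dye imaging versus time-zero plates and DMSO controls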
[1] = compound: CCc1cnn2c(NCc3ccc[n+]([O-])c3)cc(N3CCCC[C@H]3CCO)nc12; assay: as above
LEE011/Ribociclib = compound: CN(C)C(=O)c1cc2cnc(Nc3ccc(N4CCNCC4)cn3)nc2n1C1CCCC1 [LEE011/Ribociclib]; assay: as above
[2] = compound: CCN1CCN(Cc2ccc(Nc3ncc(F)c(-c4cc(F)c5nc(C)n(C(C)C)c5c4)n3)nc2)CC1; assay: as above
THZ531 [3] = compound: T1, CN(C)C/C=C/C(=O)Nc1ccc(C(=O)N2CCC[C@@H](Nc3ncc(Cl)c(-c4c[nH]c5ccccc45)n3)C2)cc1 [THZ531]; assay: as above
YKL-5-124 = compound: C=CC(=O)Nc1ccc(C(=O)Nc2[nH]nc3c2CN(C(=O)N[C@H](CN(C)C)c2ccccc2)C3(C)C)cc1 [YKL-5-124]; assay: as above
[4] = compound: CC(=O)c1c(C)c2cnc(Nc3ccc(N4CCNCC4)cn3)nc2n(C2CCCC2)c1=O; assay: as above
BSJ-03-123 = compound: CC(=O)c1c(C)c2cnc(Nc3ccc(N4CCN(CCOCCOCCOCCNC(=O)COc5cccc6c5C(=O)N(C5CCC(=O)NC5=O)C6=O)CC4)cn3)nc2n(C2CCCC2)c1=O [BSJ-03-123]; assay: as above
senexin b = compound: CN1CCN(C(=O)c2ccc3cc(CCNc4ncnc5ccc(C#N)cc45)ccc3c2)CC1 [senexin b]
Tivantinib/ARQ197 = compound: O=C1NC(=O)[C@@H](c2cn3c4c(cccc24)CCC3)[C@@H]1c1c[nH]c2ccccc12 [Tivantinib/ARQ197]
Ceritinib/LDK378 = compound: Cc1cc(Nc2ncc(Cl)c(Nc3ccccc3S(=O)(=O)C(C)C)n2)c(OC(C)C)cc1C1CCNCC1 [Ceritinib/LDK378]
Pictilisib/GDC0941 = compound: CS(=O)(=O)N1CCN(Cc2cc3nc(-c4cccc5[nH]ncc45)nc(N4CCOCC4)c3s2)CC1 [Pictilisib/GDC0941]
Paclitaxel = compound: CC(=O)O[C@H]1C(=O)[C@@]2(C)[C@H]([C@H](OC(=O)c3ccccc3)[C@]3(O)C[C@H](OC(=O)[C@H](O)[C@@H](NC(=O)c4ccccc4)c4ccccc4)C(C)=C1C3(C)C)[C@]1(OC(C)=O)CO[C@@H]1C[C@@H]2O [Paclitaxel]
BSJ-01-175 = compound: CN(C)C/C=C/C(=O)Nc1ccc(O[C@@H]2CCC[C@@H](Nc3ncc(Cl)c(-c4c[nH]c5ccccc45)n3)C2)cc1 [BSJ-01-175]
THZ531 [5] = compound: T1, THZ531
Rucaparib = compound: CNCc1ccc(-c2[nH]c3cc(F)cc4c3c2CCNC4=O)cc1 [Rucaparib]
AZD6738 = compound: C[C@@H]1COCCN1c1cc(C2([S@](C)(=N)=O)CC2)nc(-c2cc[nH]c3nccc2-3)n1 [AZD6738]
Cediranib/AZD2171 = compound: COc1cc2c(Oc3ccc4[nH]c(C)cc4c3F)ncnc2cc1OCCCN1CCCC1 [Cediranib/AZD2171]
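For GR50, 72 h in this document: breast cancer and non-malignant breast epithelial cell lines, Deep Dye Drop or Dye Drop imaging, nine half-log doses, GR normalized to time-zero plates and DMSO-only controls.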

CAMA1
GR value (THZ1; 0.0001 µM): 0.892 GR
GR value (THZ1; 0.0003162 µM): 0.979 GR
GR value (THZ1; 0.001 µM): 0.758 GR
GR value (THZ1; 0.003162 µM): 0.755 GR
GR value (THZ1; 0.01 µM): 0.615 GR
GR value (THZ1; 0.03162 µM): 0.549 GR
GR value (THZ1; 0.1 µM): 0.208 GR
GR value (THZ1; 0.3162 µM): -0.0416 GR
GR value (THZ1; 1 µM): -0.467 GR
GR value ([1]; 0.0001 µM): 0.942 GR
GR value ([1]; 0.0003162 µM): 1.05 GR
GR value ([1]; 0.001 µM): 1.01 GR
GR value ([1]; 0.003162 µM): 1 GR
GR value ([1]; 0.01 µM): 0.725 GR
GR value ([1]; 0.03162 µM): -0.0614 GR
GR value ([1]; 0.1 µM): -0.386 GR
GR value ([1]; 0.3162 µM): -0.417 GR
GR value ([1]; 1 µM): -0.494 GR
GR value (LEE011/Ribociclib; 0.001 µM): 0.721 GR
GR value (LEE011/Ribociclib; 0.003162 µM): 0.549 GR
GR value (LEE011/Ribociclib; 0.01 µM): 0.365 GR
GR value (LEE011/Ribociclib; 0.03162 µM): 0.492 GR
GR value (LEE011/Ribociclib; 0.1 µM): 0.285 GR
GR value (LEE011/Ribociclib; 0.3162 µM): 0.207 GR
GR value (LEE011/Ribociclib; 1 µM): 0.21 GR
GR value (LEE011/Ribociclib; 3.162 µM): 0.141 GR
GR value (LEE011/Ribociclib; 10 µM): 0.159 GR
GR value ([2]; 0.001 µM): 0.866 GR
GR value ([2]; 0.003162 µM): 0.777 GR
GR value ([2]; 0.01 µM): 0.44 GR
GR value ([2]; 0.03162 µM): 0.272 GR
GR value ([2]; 0.1 µM): 0.257 GR
GR value ([2]; 0.3162 µM): 0.278 GR
GR value ([2]; 1 µM): 0.285 GR
GR value ([2]; 3.162 µM): 0.286 GR
GR value ([2]; 10 µM): 0.223 GR
GR value (THZ531 [3]; 0.0001 µM): 1.2 GR
GR value (THZ531 [3]; 0.0003162 µM): 0.94 GR
GR value (THZ531 [3]; 0.001 µM): 0.893 GR
GR value (THZ531 [3]; 0.003162 µM): 1.16 GR
GR value (THZ531 [3]; 0.01 µM): 1.26 GR
GR value (THZ531 [3]; 0.03162 µM): 0.867 GR
GR value (THZ531 [3]; 0.1 µM): 0.777 GR
GR value (THZ531 [3]; 0.3162 µM): -0.0843 GR
GR value (THZ531 [3]; 1 µM): -0.403 GR
GR value (YKL-5-124; 0.001 µM): 0.224 GR
GR value (YKL-5-124; 0.003162 µM): 0.229 GR
GR value (YKL-5-124; 0.01 µM): 0.0682 GR
GR value (YKL-5-124; 0.03162 µM): 0.0899 GR
GR value (YKL-5-124; 0.1 µM): 0.0659 GR
GR value (YKL-5-124; 0.3162 µM): -0.0547 GR
GR value (YKL-5-124; 1 µM): 0.0323 GR
GR value (YKL-5-124; 3.162 µM): 0.0041 GR
GR value (YKL-5-124; 10 µM): -0.591 GR
GR value ([4]; 0.0003162 µM): 0.969 GR
GR value ([4]; 0.001 µM): 0.973 GR
GR value ([4]; 0.003162 µM): 0.94 GR
GR value ([4]; 0.01 µM): 0.887 GR
GR value ([4]; 0.03162 µM): 0.678 GR
GR value ([4]; 0.1 µM): 0.442 GR
GR value ([4]; 0.3162 µM): 0.303 GR
GR value ([4]; 1 µM): 0.3 GR
GR value ([4]; 3.162 µM): 0.288 GR
GR value (BSJ-03-123; 0.001 µM): 0.778 GR
GR value (BSJ-03-123; 0.003162 µM): 0.65 GR
GR value (BSJ-03-123; 0.01 µM): 0.463 GR
GR value (BSJ-03-123; 0.03162 µM): 0.391 GR
GR value (BSJ-03-123; 0.1 µM): 0.264 GR
GR value (BSJ-03-123; 0.3162 µM): 0.238 GR
GR value (BSJ-03-123; 1 µM): 0.219 GR
GR value (BSJ-03-123; 3.162 µM): 0.219 GR
GR value (BSJ-03-123; 10 µM): 0.0155 GR
GR50, 72 h (senexin b): 1.09 µM
GR50, 72 h (Tivantinib/ARQ197): 0.276 µM
GR50, 72 h (Ceritinib/LDK378): 1.8 µM
GR50, 72 h (Pictilisib/GDC0941): 1.55 µM
GR50, 72 h (Paclitaxel): 0.00227 µM
GR50, 72 h (BSJ-01-175): 0.101 µM
GR50, 72 h (THZ531 [5]): 0.139 µM
GR50, 72 h (Rucaparib): > 10 µM
GR50, 72 h (AZD6738): 8.16 µM
GR50, 72 h (Cediranib/AZD2171): 5.02 µM

— the supplement of paper PMC9663587
